Data on three compounds can be found in article PMC7472048 (Viruses, 2020).

The test system of one data set is rLCMV/ZsG. Briefly: microbe, parasite or virus in culture. It is filed as cell-based, lymphocytic choriomeningitis virus (LCMV). The settings on record: Mammarenavirus choriomeningitidis, A549, 48 h, read-out: rLCMV (A549 cell) EC50.
In a further data set the test system is rLASV. Briefly: microbe, parasite or virus in culture. In kind it is cell-based, Lassa virus (LASV). The note with it: Mammarenavirus lassaense, A549, read-out: rLASV (A549 cell) EC50.
In another data set the test system is r3Can. Briefly: organism not typed. In kind it is cell-based, Junín virus (JUNV) Candid#1 strain. The settings on record: Vero, read-out: r3Can (Vero cell) EC50.
For another data set, the system named is rLASV/GFP. It is filed as cell-based, Lassa virus (LASV).
Another data set concerns r3Can/GFP. It is filed as cell-based, Junín virus (JUNV).
The subject of data set [1] is IFNB and ISG mRNA expression. It is filed as cell-based, Homo sapiens.
Data set [2] in a line: in vitro. The note with it: human.
A short description of data set [3]: in vitro. The settings on record: African green monkey (Chlorocebus aethiops).
In a further data set the test system is LASV Z-mediated budding. It is filed as cell-based, Lassa virus (LASV).
Another data set relates to LCMV CL-13. On the set-up: species or system C57BL/6 mice. The note with it: mouse, in vivo, 150 mg/kg/day.
In another data set the test system is rCL-13/ZsG. In kind it is cell-based, lymphocytic choriomeningitis virus (LCMV).
The test system of a further data set is influenza A virus. The settings on record: mouse, in vivo; cited from earlier work.

By EC50 is commonly meant the concentration giving half of the maximal effect. Consider `Cc1c(-c2ccc(-c3ccccc3F)cc2)nc2ccc(F)cc2c1C(=O)O` [Brequinar], for which the concentration for a half-maximal effect (EC50) was 41 nM with rLCMV/ZsG, 63 nM in the data set with rLASV and 40 nM in the data set on r3Can. Besides, the rLASV/GFP propagation result in the data set on rLASV/GFP was “strongly inhibited”. Moreover, the r3Can/GFP propagation entry with r3Can/GFP is reported as “strongly inhibited”. In addition, the “mRNA levels of IFNB and ISGs in LCMV-infected cells” value in [1] is given as “significantly decreased”. For the same compound, the “ISG15 and IFIT1 expression in non-infected A549 cells” value in data set [1] (5 µM, 48 h) is “moderately upregulated”. For the same compound, in [1] (5 µM, 48 h), the “expression of IFNB in non-infected A549 cells” value is reported as “Neither Cmp 1 nor brequinar treatment significantly affected”. The CC50 was found to be 79 µM in the data set “in vitro [2]” and 47.2 µM in the data set “in vitro [3]”.
With `COc1cccc(-c2ccc(NC(=O)C3=C(C(=O)O)CCC3)c(F)c2)c1` [Cmp 4, vidofludimus calcium], the EC50 stood at 1280 nM in the data set on rLCMV/ZsG, 3020 nM in the data set on rLASV and 1680 nM with r3Can. The “Z budding efficiency, ratio ZVLP:(ZVLP+ZWCL)” value with LASV Z-mediated budding is “very modest, but statistically significant, effect”. The “body weight loss and recovery versus vehicle control” value in the data set with LCMV CL-13 was “less body weight loss and faster recovery”. Moreover, the “viral load (serum virus titers)” value in the data set with LCMV CL-13 is on record as “did not cause a significant reduction”. For the same compound, in the data set on rCL-13/ZsG, the “Cmp 4-induced antiviral effect with exogenous uridine” value was “reverted”. Moreover, the CC50 in “in vitro [2]” was determined as 54.4 µM; in “in vitro [3]”, 5.92 µM.
`CCOc1ccc(-c2cc(C(=O)O)c3cc(Br)ccc3n2)cc1` [FA-613]: in the data set with influenza A virus, the survival result is reported as “increased survival”.
